This note sets out measurements from patent publication US20060034889A1, “Biodegradable diblock copolymers having reverse thermal gelation properties and methods of use thereof” (MacroMed, Inc., priority 2004, published 2006).

For this series the following is noted: 30% by weight aqueous PLG-PEG diblock copolymer solutions or gels, 120 days, 5 °C and 37 °C.

`CC(=O)O[C@H]1C(=O)[C@@]2(C)[C@H]([C@H](OC(=O)c3ccccc3)[C@]3(O)C[C@H](OC(=O)[C@H](O)[C@@H](NC(=O)c4ccccc4)c4ccccc4)C(C)=C1C3(C)C)[C@]1(OC(C)=O)CO[C@@H]1C[C@@H]2O` [paclitaxel]: the “drug intact after storage” value is recorded as “greater than 85%”.
